Test results taken from patent US20080280837A1, “Biologically Active Compounds with Anti-Angiogenic Properties” (priority 2004, published 2008).

Biological target: T1, Human SST5 somatostatin receptor (SSTR5) (Homo sapiens, UniProt P35346)
T1 construct: expressed in transfected cells; host or cells: HEK-293 EBNA
Assay: Filter plate assay for SST5 receptor, displacement of [125I]SST-14
Type: binding
Method: Receptor membrane preparations containing the desired cloned receptor (for example cloned human somatostatin receptor subtype 5, SSTR5) and radio-labeled ligand (for example 3-[^125I]iodotyrosyl^11 Somatostatin-14)) were diluted at the concentration required for testing and according to the specific parameters associated with the selected receptor-ligand combination, including receptor Bmax, ligand Kd and any other parameters necessary to optimize the experimental conditions. When tested for competition activity to the reference ligand, “compound 1” was mixed with membrane suspension and the radiolabeled reference ligand (with or without an excess of cold ligand to the receptor for determination of non-specific binding) and incubated at the temperature required by internal standard operating procedures. Following incubation, the binding reaction was stopped by the addition of ice-cold washing buffer and filtered on appropriate filters, which are then counted. Data analysis and curve-fitting was performed with XLfit (IDBS).
10 mM solutions of test compounds in 100% DMSO were prepared. ˜160 μl was used for each dilution (20 μl/well in triplicate).
A 1.25 mM assay stock was prepared by making a 1:8 dilution of the 10 mM solution. (To 30 μL of the 10 mM solution was added 210 μL milli-Q H2O. A 1:5 dilution series in milli-Q H2O was then prepared.
Assays were performed in triplicate at each concentration within the 1:5 dilution series: 250 μM, 50 μM, 10 μM, […], 0.4 μM, 0.08 μM, 0.016 μM, 0.0032 μM, etc. (for SST4 assay) and 125 μM, 10 μM, 2 μM, 1 μM, 0.5 μM, etc (for SST5 assay).
Human SST5 somatostatin receptor was transfected into HEK-293 EBNA cells. Membranes were suspended in assay buffer (50 mM Tris-HCl, 1 mM EGTA, 5 mM MgCl2, 10% sucrose, pH 7.5).
After thawing the frozen receptor preparation rapidly, receptors were diluted with binding buffer, homogenized, and kept on ice. • 1. Use Multiscreen glass fiber filter plates (Millipore, Cat No MAFCNOB10) precoated with o.5% PEI for ˜2 hr at 4° C. Before use add 200 μl/well assay buffer and filter using Multiscreen Separation System. • 2. Incubate 5.5 μg of membranes (40 μl of a 1:40 dilution), buffer and [^125I]SST-14 (4 nM, ˜80 000 cpm, 2000 Ci/mmol) in a total volume of 200 μl for 60 min at 25° C. […] Prepare serial dilutions (1:5) of compounds, as described above and instead of adding SST-14 in well, add 20 μl of compounds (Table 1). • 3. Filter using Multiscreen Separation System with 5×0.2 ml ice-cold Assay buffer. • 4. Remove the plastic underdrain and dry plate in oven for 1 hr at 40° C. • 5. Seal tape to the bottom of the plate. • 6. Add 50 μl/well scintillant (Supermix, Wallac, Cat No 1200-439). • 7. Seal and count in the BJET, program 2.
In primary screening experiments compounds were tested in duplicate for a particular concentration.

T1 sequence (P35346 whole entry): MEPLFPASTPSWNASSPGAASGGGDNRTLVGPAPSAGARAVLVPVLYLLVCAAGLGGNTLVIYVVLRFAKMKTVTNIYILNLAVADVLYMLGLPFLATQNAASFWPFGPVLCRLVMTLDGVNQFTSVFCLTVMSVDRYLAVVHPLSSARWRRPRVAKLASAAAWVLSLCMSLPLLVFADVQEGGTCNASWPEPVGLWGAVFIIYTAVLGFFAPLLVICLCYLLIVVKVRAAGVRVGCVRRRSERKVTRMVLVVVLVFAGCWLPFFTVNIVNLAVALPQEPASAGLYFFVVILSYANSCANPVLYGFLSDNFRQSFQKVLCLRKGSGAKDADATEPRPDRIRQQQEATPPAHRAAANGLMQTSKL

SMILES | SSTR5 Inhib 0.5 uM % (inhibition of binding of SST-14 to SSTR5) | SSTR5 Inhib 10 uM % (inhibition of binding of SST-14 to SSTR5)
COC1C(O)C(COCc2ccc(Cl)cc2)OC(OCc2ccc(-c3ccccc3)cc2)C1NC(=O)CCNC(=N)N (stereo not drawn) [Compound 78] | 43% | 88%
COC1C(O)C(COCc2ccc3ccccc3c2)OC(OCc2ccc(Cl)cc2)C1NC(=O)C1CCN(C(=N)N)CC1 (stereo not drawn) [Compound 79] | 55% | 88%
COC[C@H]1OC(OCc2ccc(-c3ccccc3)cc2)[C@H](NC(=O)CCCN)[C@@H](OCc2ccc(-c3ccccc3)cc2)[C@@H]1O (stereo partly drawn) [Compound 80] | 44% | 88%
COC1C(O)C(COCc2ccc3ccccc3c2)OC(OCc2ccc3ccccc3c2)C1NC(=O)CCCN (stereo not drawn) [Compound 81] | 60% | 87%
COC[C@H]1OC(OCc2ccc3ccccc3c2)[C@H](NC(=O)CCCN)[C@@H](OCc2cccc(O)c2)[C@@H]1O (stereo partly drawn) [Compound 82] | 48% | 87%
CSC1OC(COCc2ccc(Cl)cc2)C(O)C(OCc2ccc(-c3ccccc3)cc2)C1NC(=O)CN (stereo not drawn) [Compound 83] | 61% | 87%
COC[C@H]1OC(OCc2ccc3ccccc3c2)[C@H](NC(=O)CCNC(=N)N)[C@H](OCc2ccccc2)[C@@H]1O (stereo partly drawn) [Compound 85] | 54% | 87%
COC[C@H]1OC(OCc2ccc3ccccc3c2)[C@H](NC(=O)CCNC(=N)N)[C@@H](OCc2ccc(-c3ccccc3)cc2)[C@@H]1O (stereo partly drawn) [Compound 86] | 58% | 87%
COC[C@H]1OC(OCc2ccccc2)[C@H](NC(=O)CCNC(=N)N)[C@H](OCc2ccc(-c3ccccc3)cc2)[C@@H]1O (stereo partly drawn) [Compound 87] | 43% | 86%
COC[C@H]1OC(OCc2ccc3ccccc3c2)[C@H](NC(=O)CNC(=N)N)[C@@H](OCc2ccc(-c3ccccc3)cc2)[C@@H]1O (stereo partly drawn) [Compound 88] | 63% | 86%
CSC1O[C@H](COCc2ccc3ccccc3c2)[C@@H](O)[C@@H](OCc2ccccc2)[C@H]1NC(=O)CCNC(=N)N (stereo partly drawn) [Compound 89] | 58% | 86%
COC[C@H]1OC(OCc2ccc(Cl)cc2)[C@H](NC(=O)CCCN)[C@@H](OCc2ccc(-c3ccccc3)cc2)[C@@H]1O (stereo partly drawn) [Compound 90] | 52% | 86%
CSC1O[C@H](COCc2ccccc2)[C@@H](O)[C@@H](OCc2ccc3ccccc3c2)[C@H]1NC(=O)CCCNC(=N)N (stereo partly drawn) [Compound 91] | 53% | 86%
COC[C@H]1OC(OCc2ccc3ccccc3c2)[C@H](NC(=O)CCCN)[C@H](OCc2ccccc2)[C@@H]1O (stereo partly drawn) [Compound 92] | 52% | 86%
COC[C@H]1OC(OCc2ccc(-c3ccccc3)cc2)[C@H](NC(=O)CCCNC(=N)N)[C@@H](OCc2ccc(Cl)cc2)[C@@H]1O (stereo partly drawn) [Compound 93] | 47% | 86%
CSC1O[C@H](COCc2ccccc2)[C@@H](O)[C@@H](OCc2ccc(-c3ccccc3)cc2)[C@H]1NC(=O)CCCN (stereo partly drawn) [Compound 94] | 45% | 86%
COC[C@H]1OC(OCc2ccccc2)[C@H](NC(=O)CCCN)[C@@H](OCc2ccc(-c3ccccc3)cc2)[C@@H]1O (stereo partly drawn) [Compound 95] | 44% | 85%
COC[C@H]1OC(OCc2ccc(Cl)cc2)[C@H](NC(=O)CCCNC(=N)N)[C@@H](OCc2ccc(-c3ccccc3)cc2)[C@@H]1O (stereo partly drawn) [Compound 96] | 43% | 85%
CSC1O[C@H](COCc2ccc3ccccc3c2)[C@@H](O)[C@@H](OCc2ccc(-c3ccccc3)cc2)[C@H]1NC(=O)CN (stereo partly drawn) [Compound 97] | 41% | 85%
COC[C@H]1OC(OCCc2ccccc2)[C@H](NC(=O)CCCNC(=N)N)[C@@H](OCc2ccc(Cl)cc2)[C@@H]1O (stereo partly drawn) [Compound 98] | 55% | 84%
COC[C@H]1OC(OCc2ccc(Cl)cc2)[C@H](NC(=O)CCNC(=N)N)[C@H](OCc2ccc(-c3ccccc3)cc2)[C@@H]1O (stereo partly drawn) [Compound 99] | 43% | 84%
COC[C@H]1OC(OCc2ccccc2)[C@H](NC(=O)CCCNC(=N)N)[C@H](OCc2ccc3ccccc3c2)[C@@H]1O (stereo partly drawn) [Compound 100] | 59% | 84%
COC[C@H]1OC(OCc2ccc(Cl)cc2)[C@H](NC(=O)CCNC(=N)N)[C@@H](OCc2ccc(-c3ccccc3)cc2)[C@@H]1O (stereo partly drawn) [Compound 101] | 50% | 84%
COC[C@H]1OC(OCc2ccccc2)[C@H](NC(=O)CCNC(=N)N)[C@H](OCc2ccc(Cl)cc2)[C@@H]1O (stereo partly drawn) [Compound 102] | 42% | 84%
COC[C@H]1OC(OCc2ccc3ccccc3c2)[C@H](NC(=O)CCCNC(=N)N)[C@@H](OCc2ccc(Cl)cc2)[C@@H]1O (stereo partly drawn) [Compound 103] | 48% | 84%
COC[C@H]1OC(OCc2ccc3ccccc3c2)[C@H](NC(=O)CCCNC(=N)N)[C@@H](OCc2ccc3ccccc3c2)[C@@H]1O (stereo partly drawn) [Compound 104] | 47% | 84%
CSC1O[C@H](COCc2ccc3ccccc3c2)[C@@H](O)[C@@H](OCc2ccccc2)[C@H]1NC(=O)CCN (stereo partly drawn) [Compound 105] | 44% | 83%
COC[C@H]1OC(OCCc2ccccc2)[C@H](NC(=O)CCN)[C@H](OCc2ccccc2)[C@@H]1O (stereo partly drawn) [Compound 106] | 53% | 83%
COC[C@H]1OC(OCc2ccc(-c3ccccc3)cc2)[C@H](NC(=O)CCCNC(=N)N)[C@@H](OCc2ccc3ccccc3c2)[C@@H]1O (stereo partly drawn) [Compound 107] | 54% | 83%
COC[C@H]1OC(OCc2ccc(-c3ccccc3)cc2)[C@H](NC(=O)CCNC(=N)N)[C@@H](OCc2ccc(Cl)cc2)[C@@H]1O (stereo partly drawn) [Compound 108] | 47% | 83%
